Data reported in patent US20150094474A1, “AGRICULTURAL CHEMICALS” (Redx Pharma Ltd., priority 2012, published 2015).

Experiments:
peas = test: Herbicidal bioassay, peas (% necrosis); assay type: in vivo
Method: (§1) A laboratory bioassay was conducted to screen ten compounds (Fluazifop (25); Ethyl fluazifop (62); five fluazifop analogues: 27, 28, 63, 64 and 65; mesofulfuron (6); and two mesosulfuron analogues: 8 and 61. for activity against Lolium perenne, barley, peas and Chinese cabbage. Compounds were diluted in DMSO. Controls were performed using both DMSO and water.
(§2) Plants were obtained as seeds and were grown to the 2-4 true leaf stage. Plants were grown individually in seed trays. Each plant (in an approximately 3 cm diameter plug) was then detached from the tray for spraying. Environmental conditions were closely monitored and recorded and were within the optimal range of the target species.
(§3) The compounds were screened at a range of six concentrations, eg. 0.05%, 0.01%, 0.005%, 0.001%, 0.0005% and 0.0001%. Treatments will be applied directly onto the plants, using a potter tower.
(§4) One plant of each type will be sprayed using a potter tower. The 4 different types of weeds will be placed in a 10 cm diameter area underneath the potter sprayer and sprayed simultaneously. The growth of the plants and any Phytotoxicity effects will then be assessed at specified growth intervals, according to EPPO guideline PP1/135. Five replicates will be performed for each treatment, for each species.

barley = test: Herbicidal bioassay, barley (% necrosis); assay type: in vivo
Method: as §1, §2, §3, §4

COc1cc(OC)nc(NC(=O)NS(=O)(=O)c2cc(CNS(C)(=O)=O)ccc2CO)n1 [Compound 8, 1-(4,6-Dimethoxypyrimidin-2-yl)-3-[2-(hydroxymethyl)-5-(methanesulfonamidomethyl)phenyl]sulfonyl-urea]
Sum of % necrosis in Pea (peas; Dose 0.000001, Day 0): C (less than 50% necrosis)
Sum of % necrosis in Pea (peas; Dose 0.000001, Day 1): C (less than 50% necrosis)
Sum of % necrosis in Pea (peas; Dose 0.000001, Day 3): B (50%-80% necrosis)
Sum of % necrosis in Pea (peas; Dose 0.000001, Day 7): A (over 80% necrosis)
Sum of % necrosis in Pea (peas; Dose 0.000001, Day 10): A (over 80% necrosis)
Sum of % necrosis in Pea (peas; Dose 0.000001, Day 14): A (over 80% necrosis)
Sum of % necrosis in Pea (peas; Dose 0.000005, Day 0): C (less than 50% necrosis)
Sum of % necrosis in Pea (peas; Dose 0.000005, Day 1): C (less than 50% necrosis)
Sum of % necrosis in Pea (peas; Dose 0.000005, Day 3): B (50%-80% necrosis)
Sum of % necrosis in Pea (peas; Dose 0.000005, Day 7): B (50%-80% necrosis)
Sum of % necrosis in Pea (peas; Dose 0.000005, Day 10): A (over 80% necrosis)
Sum of % necrosis in Pea (peas; Dose 0.000005, Day 14): A (over 80% necrosis)
Sum of % necrosis in Pea (peas; Dose 0.00001, Day 0): C (less than 50% necrosis)
Sum of % necrosis in Pea (peas; Dose 0.00001, Day 1): C (less than 50% necrosis)
Sum of % necrosis in Pea (peas; Dose 0.00001, Day 3): B (50%-80% necrosis)
Sum of % necrosis in Pea (peas; Dose 0.00001, Day 7): A (over 80% necrosis)
Sum of % necrosis in Pea (peas; Dose 0.00001, Day 10): A (over 80% necrosis)
Sum of % necrosis in Pea (peas; Dose 0.00001, Day 14): A (over 80% necrosis)
Sum of % necrosis in Pea (peas; Dose 0.00005, Day 0): C (less than 50% necrosis)
Sum of % necrosis in Pea (peas; Dose 0.00005, Day 1): C (less than 50% necrosis)
Sum of % necrosis in Pea (peas; Dose 0.00005, Day 3): B (50%-80% necrosis)
Sum of % necrosis in Pea (peas; Dose 0.00005, Day 7): A (over 80% necrosis)
Sum of % necrosis in Pea (peas; Dose 0.00005, Day 10): A (over 80% necrosis)
Sum of % necrosis in Pea (peas; Dose 0.00005, Day 14): A (over 80% necrosis)
Sum of % necrosis in Pea (peas; Dose 0.0001, Day 0): C (less than 50% necrosis)
Sum of % necrosis in Pea (peas; Dose 0.0001, Day 1): C (less than 50% necrosis)
Sum of % necrosis in Pea (peas; Dose 0.0001, Day 3): B (50%-80% necrosis)
Sum of % necrosis in Pea (peas; Dose 0.0001, Day 7): A (over 80% necrosis)
Sum of % necrosis in Pea (peas; Dose 0.0001, Day 10): A (over 80% necrosis)
Sum of % necrosis in Pea (peas; Dose 0.0001, Day 14): A (over 80% necrosis)
Sum of % necrosis in Pea (peas; Dose 0.0005, Day 0): C (less than 50% necrosis)
Sum of % necrosis in Pea (peas; Dose 0.0005, Day 1): C (less than 50% necrosis)
Sum of % necrosis in Pea (peas; Dose 0.0005, Day 3): B (50%-80% necrosis)
Sum of % necrosis in Pea (peas; Dose 0.0005, Day 7): A (over 80% necrosis)
Sum of % necrosis in Pea (peas; Dose 0.0005, Day 10): A (over 80% necrosis)
Sum of % necrosis in Pea (peas; Dose 0.0005, Day 14): A (over 80% necrosis)
Sum of % necrosis in barley (barley; Dose 0.000001, Day 0): C (less than 50% necrosis)
Sum of % necrosis in barley (barley; Dose 0.000001, Day 1): C (less than 50% necrosis)
Sum of % necrosis in barley (barley; Dose 0.000001, Day 3): C (less than 50% necrosis)
Sum of % necrosis in barley (barley; Dose 0.000001, Day 7): C (less than 50% necrosis)
Sum of % necrosis in barley (barley; Dose 0.000001, Day 10): C (less than 50% necrosis)
Sum of % necrosis in barley (barley; Dose 0.000001, Day 14): C (less than 50% necrosis)
Sum of % necrosis in barley (barley; Dose 0.000005, Day 0): C (less than 50% necrosis)
Sum of % necrosis in barley (barley; Dose 0.000005, Day 1): C (less than 50% necrosis)
Sum of % necrosis in barley (barley; Dose 0.000005, Day 3): C (less than 50% necrosis)
Sum of % necrosis in barley (barley; Dose 0.000005, Day 7): C (less than 50% necrosis)
Sum of % necrosis in barley (barley; Dose 0.000005, Day 10): C (less than 50% necrosis)
Sum of % necrosis in barley (barley; Dose 0.000005, Day 14): C (less than 50% necrosis)
Sum of % necrosis in barley (barley; Dose 0.00001, Day 0): C (less than 50% necrosis)
Sum of % necrosis in barley (barley; Dose 0.00001, Day 1): C (less than 50% necrosis)
Sum of % necrosis in barley (barley; Dose 0.00001, Day 3): C (less than 50% necrosis)
Sum of % necrosis in barley (barley; Dose 0.00001, Day 7): C (less than 50% necrosis)
Sum of % necrosis in barley (barley; Dose 0.00001, Day 10): C (less than 50% necrosis)
Sum of % necrosis in barley (barley; Dose 0.00001, Day 14): C (less than 50% necrosis)
Sum of % necrosis in barley (barley; Dose 0.00005, Day 0): C (less than 50% necrosis)
Sum of % necrosis in barley (barley; Dose 0.00005, Day 1): C (less than 50% necrosis)
Sum of % necrosis in barley (barley; Dose 0.00005, Day 3): C (less than 50% necrosis)
Sum of % necrosis in barley (barley; Dose 0.00005, Day 7): C (less than 50% necrosis)
Sum of % necrosis in barley (barley; Dose 0.00005, Day 10): C (less than 50% necrosis)
Sum of % necrosis in barley (barley; Dose 0.00005, Day 14): C (less than 50% necrosis)
Sum of % necrosis in barley (barley; Dose 0.0001, Day 0): C (less than 50% necrosis)
Sum of % necrosis in barley (barley; Dose 0.0001, Day 1): C (less than 50% necrosis)
Sum of % necrosis in barley (barley; Dose 0.0001, Day 3): C (less than 50% necrosis)
Sum of % necrosis in barley (barley; Dose 0.0001, Day 7): C (less than 50% necrosis)
Sum of % necrosis in barley (barley; Dose 0.0001, Day 10): C (less than 50% necrosis)
Sum of % necrosis in barley (barley; Dose 0.0001, Day 14): C (less than 50% necrosis)
Sum of % necrosis in barley (barley; Dose 0.0005, Day 0): C (less than 50% necrosis)
Sum of % necrosis in barley (barley; Dose 0.0005, Day 1): C (less than 50% necrosis)
Sum of % necrosis in barley (barley; Dose 0.0005, Day 3): C (less than 50% necrosis)
Sum of % necrosis in barley (barley; Dose 0.0005, Day 7): C (less than 50% necrosis)
Sum of % necrosis in barley (barley; Dose 0.0005, Day 10): C (less than 50% necrosis)
Sum of % necrosis in barley (barley; Dose 0.0005, Day 14): C (less than 50% necrosis)
